Experiment: xn = mol fraction of the nth substance listed
Details: Gas, Buoyancy - hydrostatic balance with magnetic suspension - two sinkers

[Ar] [argon] + O=C=O
Details | mass density [kg/m3]
273.15 K, 510.11 kPa, x2 = 0.7509 | 9.89648
273.15 K, 511.42 kPa, x2 = 0.5 | 9.60258
273.15 K, 1005.7 kPa, x2 = 0.7509 | 20.0055
273.15 K, 1013.1 kPa, x2 = 0.5 | 19.3275
273.15 K, 2007.3 kPa, x2 = 0.7509 | 42.2195
273.15 K, 2996.7 kPa, x2 = 0.7509 | 67.1561
273.15 K, 3008.4 kPa, x2 = 0.5 | 61.4185
273.15 K, 4022.5 kPa, x2 = 0.7509 | 97.4841
273.15 K, 4488.6 kPa, x2 = 0.7509 | 113.378
273.15 K, 5000.6 kPa, x2 = 0.7509 | 133.062
273.15 K, 5017 kPa, x2 = 0.5 | 110.665
273.15 K, 6031.1 kPa, x2 = 0.5 | 138.861
273.15 K, 6410 kPa, x2 = 0.5 | 150.086
283.15 K, 508.18 kPa, x2 = 0.7509 | 9.48215
283.15 K, 1002 kPa, x2 = 0.7509 | 19.109
283.15 K, 2002.5 kPa, x2 = 0.7509 | 40.0616
283.15 K, 2989.1 kPa, x2 = 0.7509 | 63.047
283.15 K, 3992.2 kPa, x2 = 0.7509 | 89.5274
283.15 K, 4988.1 kPa, x2 = 0.7509 | 120.07
283.15 K, 6073.3 kPa, x2 = 0.7509 | 160.561
283.15 K, 6588 kPa, x2 = 0.7509 | 183.67
283.15 K, 7263.8 kPa, x2 = 0.7509 | 219.753
293.15 K, 502.06 kPa, x2 = 0.7509 | 9.02478
293.15 K, 1001.8 kPa, x2 = 0.7509 | 18.3618
293.15 K, 2024.4 kPa, x2 = 0.7509 | 38.7149
293.15 K, 3001.1 kPa, x2 = 0.7509 | 60.0081
293.15 K, 4009 kPa, x2 = 0.7509 | 84.353
293.15 K, 4996.8 kPa, x2 = 0.7509 | 111.184
293.15 K, 6024 kPa, x2 = 0.7509 | 143.207
293.15 K, 7049 kPa, x2 = 0.7509 | 180.86
293.15 K, 8016.8 kPa, x2 = 0.7509 | 223.61
293.15 K, 9051.1 kPa, x2 = 0.7509 | 279.404
298.15 K, 505.28 kPa, x2 = 0.5 | 8.65443
298.15 K, 1014.6 kPa, x2 = 0.5 | 17.5824
298.15 K, 2019.2 kPa, x2 = 0.5 | 35.8258
298.15 K, 3020.7 kPa, x2 = 0.5 | 54.9064
298.15 K, 4024.4 kPa, x2 = 0.5 | 75.0005
298.15 K, 5017 kPa, x2 = 0.5 | 95.8895
298.15 K, 6025.4 kPa, x2 = 0.5 | 118.229
298.15 K, 7045.2 kPa, x2 = 0.5 | 142.007
298.15 K, 8014 kPa, x2 = 0.5 | 165.743
323.15 K, 514.24 kPa, x2 = 0.7509 | 8.34326
323.15 K, 516.98 kPa, x2 = 0.4998 | 8.14761
323.15 K, 1021 kPa, x2 = 0.7509 | 16.796
323.15 K, 1022 kPa, x2 = 0.4998 | 16.244
323.15 K, 2012.2 kPa, x2 = 0.7509 | 34.0421
323.15 K, 3034 kPa, x2 = 0.4998 | 49.9179
323.15 K, 3036.1 kPa, x2 = 0.7509 | 52.9514
323.15 K, 4037.8 kPa, x2 = 0.7509 | 72.6588
323.15 K, 5040.2 kPa, x2 = 0.4998 | 85.8585
323.15 K, 5061.8 kPa, x2 = 0.7509 | 94.214
323.15 K, 6055.5 kPa, x2 = 0.7509 | 116.646
323.15 K, 7040 kPa, x2 = 0.4998 | 124.127
323.15 K, 7054.8 kPa, x2 = 0.7509 | 140.911
323.15 K, 8053.7 kPa, x2 = 0.7509 | 167.037
323.15 K, 9016.6 kPa, x2 = 0.4998 | 164.336
323.15 K, 9045 kPa, x2 = 0.7509 | 195.026

Reference: the NIST ThermoML archive (doi:10.1021/acs.jced.6b00687)
